Reference: patent US5965088A, “Method for providing rapid disinfection of contact lenses” (priority 1997, dated 1999)
Read-outs that look alike come from different tables or passages of the source.

Tests used:
[1] = system: Pseudomonas aeruginosa (ATCC 9027); assay: Antimicrobial efficacy (stand-alone log reduction), P. aeruginosa; assay type: cell-based; conditions: for log reduction at 4 µg/mL: 4.0 ppm alexidine in ReNu MPS
Protocol: (§1) This Example illustrates the microbiocidal efficacy of solutions according to the present invention. The antimicrobial efficacy of each of various compositions for the chemical disinfection of contact lenses was evaluated. Microbial challenge inoculums were prepared using Pseudomonas aeruginosa (ATCC 9027), Staphylococcus aureus (ATCC 6538), Serratia marcescens (ATCC 13880), Candida albicans (ATCC 10231), and Fusarium solani (ATCC 36031). The test organisms were cultured on appropriate agar and the cultures were harvested using sterile DPBST (Dulbecco's Phosphate Buffered Saline plus 0.05% w/v polysorbate 80) or a suitable diluent and transferred to a suitable vessel. Spore suspensions were filtered through sterile glass wool to remove hyphal fragments. Serratia marcescens, as appropriate, was filtered (eg., through a 1.2 μ filter) to clarify the suspension. After harvesting, the suspension was centrifuged at no more than 5000× g for a maximum of 30 minutes at 20-25° C. The supernatant was poured off and resuspended in DPBST or other suitable diluent. The suspension was centrifuged a second time, and resuspended in DPBST or other suitable diluent. All challenge bacterial and fungal cell suspensions were adjusted with DPBST or other suitable diluent to 1×10^7 -10^8 cfu/mL. The appropriate cell concentration may be estimated by measuring the turbidity of the suspension, for example using a spectrophotometer at a preselected wavelength, for example 490 nm. One tube was prepared containing a minimum of 10 mL of test solution per challenge organism. Each tube of the solution to be tested was inoculated with a suspension of the test organism sufficient to provide a final count of 1.0×10^5 -10^6 cfu/mL, the volume of the inoculum not exceeding 1% of the sample volume. Dispersion of the inoculum was ensured by vortexing the sample for at least 15 seconds. The inoculated product was stored at 10-25° C. Aliquots in the amount of 1.0 mL were taken of the inoculated product for determination of viable counts after certain time periods of disinfection. The time points for the bacteria were 25, 50, 75, and 100% of the minimum disinfection time. Yeast and mold were tested at an additional timepoint of at least 400% of the minimum disinfection time. The suspension was mixed well by vortexing vigorously for at least 5 second. The 1.0 mL aliquots removed at the specified time intervals were subjected to a suitable series of decimal dilutions in validated neutralizing media. The suspensions were mixed vigorously and incubated for a suitable period of time to allow for neutralization of the microbial agent. The viable count of organisms was determined in appropriate dilutions by preparation of triplicate plates of trypticase soy (TSA) agar for bacteria and Sabouraud dextrose agar (SDA) for mold and yeast. The bacterial recovery plates were incubated at 30-35° C. for 2-4 days. The yeast was incubated at 20-30° C. for 2-4 days and mold recovery plates at 20-25° C. for 3-7 days. The average number of colony forming units was determined on countable plates. Countable plates refer to 30-300 cfu/plates for bacteria and yeast, and 8 to 80 cfu/plate for mold except when colonies are observed only for the 10^0 or 10^-1 dilution plates. The microbial reduction was then calculated at the specified time points. […] Following inoculation in a validated neutralizing broth and incubation for an appropriate period of time, the inoculum control must be between 1.0×10^5 -1.0×10^6 cfu/mL
(§2) The solutions were evaluated based on the performance requirement referred to as the "Stand-Alone Procedure for Disinfecting Products" (hereafter the "stand-alone test") and is based on the Disinfection Efficacy Testing for contact lens care products under the Draft Premarket Notification (510(k)) Guidance Document For Contact Lens Care Products dated Apr. 1, 1996, prepared by the U.S. Food and Drug Administration, Division of Ophthalmic Devices. […]

[2] = system: Pseudomonas aeruginosa, Staphylococcus aureus, Serratia marcescens, Candida albicans, Fusarium solani; assay: Stand-Alone Procedure for Disinfecting Products, primary performance criteria; assay type: cell-based, bacteria, yeast and mold; conditions: for one hour stand-alone test for bacteria: 1 hr, bacteria only
Protocol: as §1, §2

CCCCC(CC)CNC(=N)NC(=N)NCCCCCCNC(=N)NC(=N)NCC(CC)CCCC.Cl.Cl (stereo not shown) [Alexidine.2HCl, 1,1 '-hexamethylenebis(5-(2-ethylhexyl)-biguanide) dihydrochloride]
log reduction at 4 ppm ([1]; ATCC9027, 2.5 min, 4.0 ppm, aged 18 months, Exp. 1, 2.5 min, read-out: Log Reduction): 2.4 | log reduction at 4 ppm ([1]; ATCC9027, 2.5 min, 4.0 ppm, aged 18 months, Exp. 2, 2.5 min, read-out: Log Reduction): 1.9 | log reduction at 4 ppm ([1]; ATCC9027, 2.5 min, 4.0 ppm, aged 18 months, Exp. 3, 2.5 min, read-out: Log Reduction): 2.7 | log reduction at 1 ppm ([1]; ATCC9027, 5 min, 1.0 ppm, read-out: Log Reduction at 5 Minutes): 0.5 | log reduction at 2 ppm ([1]; ATCC9027, 5 min, 2.0 ppm, read-out: Log Reduction at 5 Minutes): 3 | log reduction at 3 ppm ([1]; ATCC9027, 5 min, 3.0 ppm, read-out: Log Reduction at 5 Minutes): 3.8 | log reduction at 4 ppm ([1]; ATCC9027, 5 min, 4.0 ppm, aged 18 months, Exp. 1, 5.0 min, read-out: Log Reduction): 3.2 | log reduction at 4 ppm ([1]; ATCC9027, 5 min, 4.0 ppm, aged 18 months, Exp. 2, 5.0 min, read-out: Log Reduction): 3.2 | log reduction at 4 ppm ([1]; ATCC9027, 5 min, 4.0 ppm, aged 18 months, Exp. 3, 5.0 min, read-out: Log Reduction): 3.1 | log reduction at 4 ppm ([1]; ATCC9027, 5 min, 4.0 ppm, read-out: Log Reduction at 5 Minutes): 3.7 | log reduction at 5 ppm ([1]; ATCC9027, 5 min, 5.0 ppm, read-out: Log Reduction at 5 Minutes): > 5 | log reduction at 4 ppm ([1]; ATCC9027, 0.125 h, 4.0 ppm, aged 18 months, Exp. 1, 7.5 min, read-out: Log Reduction): 3.4 | log reduction at 4 ppm ([1]; ATCC9027, 0.125 h, 4.0 ppm, aged 18 months, Exp. 2, 7.5 min, read-out: Log Reduction): 3.8 | log reduction at 4 ppm ([1]; ATCC9027, 0.125 h, 4.0 ppm, aged 18 months, Exp. 3, 7.5 min, read-out: Log Reduction): 4.1 | log reduction at 1 ppm ([1]; ATCC9027, 10 min, 1.0 ppm, read-out: Log Reduction at 10 Minutes): 3.2 | log reduction at 2 ppm ([1]; ATCC9027, 10 min, 2.0 ppm, read-out: Log Reduction at 10 Minutes): 4.3 | log reduction at 3 ppm ([1]; ATCC9027, 10 min, 3.0 ppm, read-out: Log Reduction at 10 Minutes): > 5 | log reduction at 4 ppm ([1]; ATCC9027, 10 min, 4.0 ppm, aged 18 months, Exp. 1, 10.0 min, read-out: Log Reduction): > 4.8 | log reduction at 4 ppm ([1]; ATCC9027, 10 min, 4.0 ppm, aged 18 months, Exp. 2, 10.0 min, read-out: Log Reduction): > 4.8 | log reduction at 4 ppm ([1]; ATCC9027, 10 min, 4.0 ppm, aged 18 months, Exp. 3, 10.0 min, read-out: Log Reduction): 4.9 | log reduction at 4 ppm ([1]; ATCC9027, 10 min, 4.0 ppm, read-out: Log Reduction at 10 Minutes): > 5 | log reduction at 5 ppm ([1]; ATCC9027, 10 min, 5.0 ppm, read-out: Log Reduction at 10 Minutes): > 5 | log reduction at 4 ppm ([1]; ATCC9027, 0.25 h): 4 | log reduction at 4 ppm ([1]; ATCC9027, 0.25 h, 4.0 ppm, Ex. 7, different lot aged 18 months, 15 min, read-out: Log Reduction): 4.2 | log reduction at 4 ppm ([1]; ATCC9027, 0.25 h, 4.0 ppm, Ex. 8, different batch aged 19 months at 25 °C, 15 min, read-out: Log Reduction): 3.3 | log reduction at 4 ppm ([1]; ATCC9027, 0.5 h, 4.0 ppm, Ex. 6, aged 19 months at 25 °C, 30 min, read-out: Log Reduction): > 4.8 | log reduction at 4 ppm ([1]; ATCC9027, 0.5 h, 4.0 ppm, Ex. 7, different lot aged 18 months, 30 min, read-out: Log Reduction): > 4.8 | log reduction at 4 ppm ([1]; ATCC9027, 0.5 h, 4.0 ppm, Ex. 8, different batch aged 19 months at 25 °C, 30 min, read-out: Log Reduction): > 4.8 | log reduction at 4 ppm ([1]; ATCC9027, 0.75 h, 4.0 ppm, Ex. 6, aged 19 months at 25 °C, 45 min, read-out: Log Reduction): > 4.8 | log reduction at 4 ppm ([1]; ATCC9027, 0.75 h, 4.0 ppm, Ex. 7, different lot aged 18 months, 45 min, read-out: Log Reduction): > 4.8 | log reduction at 4 ppm ([1]; ATCC9027, 0.75 h, 4.0 ppm, Ex. 8, different batch aged 19 months at 25 °C, 45 min, read-out: Log Reduction): > 4.8 | log reduction at 1 ppm ([1]; ATCC9027, 1 h, 1 ppm, 1 hr, read-out: Log Reduction): > 5 | log reduction at 2 ppm ([1]; ATCC9027, 1 h, 2 ppm, 1 hr, read-out: Log Reduction): > 5 | log reduction at 3 ppm ([1]; ATCC9027, 1 h, 3 ppm, 1 hr, read-out: Log Reduction): > 5 | log reduction at 4 µg/mL ([1]; ATCC9027, 1 h, 1 hr): > 4.8 | log reduction at 4 ppm ([1]; ATCC9027, 1 h, 4 ppm, 1 hr, read-out: Log Reduction): > 5 | log reduction at 4 ppm ([1]; ATCC9027, 1 h, 4.0 ppm, Ex. 6, aged 19 months at 25 °C, 60 min, read-out: Log Reduction): > 4.8 | log reduction at 4 ppm ([1]; ATCC9027, 1 h, 4.0 ppm, Ex. 7, different lot aged 18 months, 60 min, read-out: Log Reduction): > 4.8 | log reduction at 4 ppm ([1]; ATCC9027, 1 h, 4.0 ppm, Ex. 8, different batch aged 19 months at 25 °C, 60 min, read-out: Log Reduction): > 4.8 | log reduction at 5 ppm ([1]; ATCC9027, 1 h, 5 ppm, 1 hr, read-out: Log Reduction): > 5 | log reduction at 4 µg/mL ([1]; ATCC9027, 2 h, 2 hr): > 4.8 | log reduction at 4 µg/mL ([1]; ATCC9027, 3 h, 3 hr): > 4.8 | log reduction at 4 µg/mL ([1]; ATCC9027, 4 h, 4 hr): > 4.8 | one hour stand-alone test for bacteria ([2]; 1.0 ppm): will not pass the one hour stand-alone test for bacteria | one hour stand-alone test for bacteria ([2]; 2.0 ppm): passes the one hour stand-alone test for bacteria | one hour stand-alone test ([2]; 4.0 ppm alexidine in ReNu MPS): passed the one hour stand-alone test | stand-alone test ([2]; 4.0 ppm, Example 6, 30, 45, 60 min, no rub or rinse): able to pass a stand-alone test (with no rub or rinse) at the 30 minute time point, 45 time point and the 60 minute time point | stand-alone test ([2]; 4.0 ppm, Example 7, 30, 45, 60 min): passed the stand alone test at 30 minutes, 45 minutes, and 60 minutes | stand-alone test ([2]; 4.0 ppm, Example 7, 15 min, with respect to Serratia marcescens and Candida albicans): only just passed the 15 minute stand-alone test | stand-alone test ([2]; 4.0 ppm, Example 8, 30, 45, 60 min, without rubbing): passed the stand-alone test (without rubbing) at 30 minutes, 45 minutes, and 60 minutes | stand-alone test ([2]; 4.0 ppm, Example 8, 15 min, without rubbing): did not pass the test at 15 minutes | time required to pass a stand-alone procedure without rubbing ([2]; 4.0 ppm, Tables 3, 4 and 5): at least 30 minutes
